Reference: patent publication US5223637A, “KS-506 compounds” (Kyowa Hakko Kogyo Co., Ltd., priority 1988, dated 1993)
In brackets after ≈: the same amount, converted by molar mass. Counter-ions that a name gives are not always drawn. Each block holds one molecule with its values, some of them ahead of it.

Experiments:
[1] = test system: PDE preparation partially purified from bovine cerebral cortex; assay: PDE-inhibiting activity (Experimental Example 1); assay type: biochemical; details: 1.2 mM cAMP, 4 U/ml calmodulin, 50 μM calcium chloride, pH 6.9, 30° C., 30 minutes
Method: Methanol solutions of the test compounds at various concentrations (50 μl each) were respectively added to 500 μl of a reaction mixture comprising 80 mM imidazole-hydrochloride buffer (pH 6.9), 3 mM magnesium sulfate, 0.3 mM dithiothreitol, 100 mM sodium chloride, 50 μM calcium chloride, 1.2 mM cAMP, 4 U/ml calmodulin (1U is defined as the amount which activates 50% of the maximum activity of PDE under the conditions) and 26 mU/ml PDE (1U is defined as the amount which hydrolyzes 1 μmol of cAMP in one minute), and reaction was allowed to proceed at 30° C. for 30 minutes.
The reaction was discontinued by heating at 100° C. for 5 minutes. Then, 6 μmol of manganese chloride and 0.2 U of 5'-nucleotidase (1U is defined as the amount which forms 1 μmol of phosphoric acid in one minute) were added to the reaction mixture, and reaction was allowed to proceed at 30° C. for 30 minutes. […] Inhibition rate was calculated in accordance with the following equation:
Inhibition rate=(A-B)/A×100 (%)
A: Amount of the inorganic phosphoric acid formed in the absence of a test compound
B: Amount of the inorganic phosphoric acid formed in the presence of a test compound

Solubility = assay type: physicochemical; details: for Solubility (solvents in which insoluble): hexane and water; for Solubility (solvents in which soluble): organic solvents as listed
[2] = test system: Rat Peritoneal Exudate Cells; assay: Effect on Histamine Release from Rat Peritoneal Exudate Cells (Experimental Example 2); assay type: cell-based; details: phosphatidyl-L-serine and concanavalin A stimulation; for IC50: 37° C., read-out: IC50 (concentration of a test compound which inhibits histamine release by 50%)
Method: Effect on Histamine Release from Rat Peritoneal Exudate Cells
1) Preparation of Suspension of Rat Abdominal Cavity Cells and Effect on Histamine Release
Rats weighing from 350 to 450 g were sacrificed by exsanguination under dry ether anesthesia, and a medium for mast cells (composition : 150 mM NaCl, 3.7 mM KCl, 3 mM Na2 HPO4, 3.5 mM KH2 PO4, 1 mM CaCl2, 5.6 mM glucose, 0.1% bovine serum albumin and 10 U/ml heparin) prepared according to the method of Sullivan, et al. [J. Immunol. 114, 1473 (1973)] was intraperitoneally injected into the animals in an amount of 15 ml/animal. After massage of the abdominal parts for 2 minutes, the animals were subjected to celiotomy to sample exudate in the abdominal cavities. The collected exudate was subjected to centrifugation at 100 xg at 4° C. for 5 minutes, and the precipitate was mixed with an appropriate amount of the ice-cooled medium for mast cells mentioned above to prepare a suspension. Then, the centrifugation and the addition of the medium were repeated three times to prepare a cell suspension wherein the final concentration of the mast cells was about 2×10^5 cells/ml. Identification of the mast cells was carried out by staining intracellular granules with 0.05% Toluidine Blue.
One milliliter portions of the thus obtained cell suspension were preincubated at 37° C. for 5 minutes, and then respectively mixed with 0.1 ml each of test compound solutions having various concentrations,followed by incubation for 5 minutes. The incubated mixtures were further mixed with 0.1 ml each of 10 μg/ml phosphatidyl-L-serine and concanavalin A, and then incubated for 15 minutes.
Spontaneous histamine release was determined under similar incubation conditions except that physiological saline was used in place of phosphatidyl-L-serine and concanavalin A.
The reaction was stopped by addition of 3 ml of ice-cooled physiological saline, and the cell suspension was subjected to centrifugation at 1100 xg at 4° C. for 10 minutes to obtain a supernatant and a residue. Histamine contents of the supernatant and the residue were measured by the fluorescence method according to the method of Komatsu [Allergy 27, 67 (1978)]. Histamine release rate was indicated as the percentage of the histamine content of the supernatant to the total histamine content of the cells. The rate of inhibition of histamine release by the test compound solution was calculated according to the following equation: [formula]

IC50 (concentration of a test compound inhibiting 50% of the PDE activity) [1]: 0.080 µg/mL | Solubility (solvents in which insoluble) (Solubility): insoluble in hexane and water
Compound: Cc1c(C)c(C(=O)Oc2c(C)c(O)c(C)c(C)c2SSc2c(C)c(C)c(O)c(C)c2OC(=O)c2c(C)c(C)c(O)c(C)c2O)c(O)c(C)c1O [KS-506g]
Solubility (solvents in which soluble) (Solubility): soluble in methanol, ethanol, acetone, ethyl acetate, acetonitrile, dimethylsulfoxide and chloroform

IC50 [2]: 1.2 µg/mL (≈ 2.61 µM) | Solubility (solvents in which insoluble) (Solubility): insoluble in hexane and water
Compound: CC(=O)CCSC(=O)c1c(C)c(C)c(O)c(C)c1OC(=O)c1c(C)c(C)c(O)c(C)c1O [KS-506m]
inhibition at 0.5 µg/mL ([2]; concentration of test compound 0.5 μg/ml, read-out: Release inhibition rate): 27.9% | inhibition at 1.5 µg/mL ([2]; concentration of test compound 1.5 μg/ml, read-out: Release inhibition rate): 58.4% | inhibition at 5 µg/mL ([2]; concentration of test compound 5.0 μg/ml, read-out: Release inhibition rate): 83.3% | Solubility (solvents in which soluble) (Solubility): soluble in methanol, acetone, ethyl acetate, acetonitrile and dimethylsulfoxide

IC50 [2]: 8.2 µg/mL (≈ 21.1 µM) | Solubility (solvents in which insoluble) (Solubility): insoluble in hexane and water
Compound: COC(=O)c1c(C)c(C)c(O)c(C)c1OC(=O)c1c(C)c(C)c(O)c(C)c1O [KS-506h]
inhibition at 3 µg/mL ([2]; concentration of test compound 3.0 μg/ml, read-out: Release inhibition rate): 13.9% | inhibition at 10 µg/mL ([2]; concentration of test compound 10.0 μg/ml, read-out: Release inhibition rate): 59.9% | Solubility (solvents in which soluble) (Solubility): soluble in methanol, acetone, ethyl acetate, acetonitrile and dimethylsulfoxide

Continued, molecule first:

Compound: COc1ccc(Cc2nccc3cc(OC)c(OC)cc23)cc1OC [Papaverine hydrochloride, reference compound]
IC50 (concentration of a test compound inhibiting 50% of the PDE activity) [1]: 60 µg/mL

Compound: Cc1c(C)c(C(=O)Oc2c(C)c(O)c(C)c(C)c2SSC(=O)c2c(C)c(C)c(O)c(C)c2OC(=O)c2c(C)c(C)c(O)c(C)c2O)c(O)c(C)c1O [KS-506x]
IC50 (concentration of a test compound inhibiting 50% of the PDE activity) [1]: 0.28 µg/mL | Solubility (solvents in which insoluble) (Solubility): insoluble in hexane and water | Solubility (solvents in which soluble) (Solubility): soluble in methanol, ethanol, acetone, ethyl acetate, acetonitrile, dimethylsulfoxide and chloroform

Compound: COc1c(O)cc2cc(C)oc(=O)c2c1O [Reticurol, reference compound]
IC50 (concentration of a test compound inhibiting 50% of the PDE activity) [1]: 20 µg/mL

Compound: Cc1c(C)c(C(=O)Oc2c(C)c(O)c(C)c(C)c2C(=O)SSC(=O)c2c(C)c(C)c(O)c(C)c2OC(=O)c2c(C)c(C)c(O)c(C)c2O)c(O)c(C)c1O [KS-506a]
IC50 (concentration of a test compound inhibiting 50% of the PDE activity) [1]: 1.22 µg/mL | Solubility (solvents in which insoluble) (Solubility): insoluble in hexane and water | Solubility (solvents in which soluble) (Solubility): soluble in methanol, ethanol, acetone, ethyl acetate, acetonitrile, dimethylsulfoxide and chloroform
